Test results published in publication PMC10636171 (Cell Death & Disease, 2023).

Columns and labels:
[1] = system: phosphorylated c-Met in MHCC97H cells; assay: Western blot of phosphorylated c-Met; format: cell-based, human; conditions: concentration as low as 1 nM
Description: (§1) Proteins (25–50 ug/lane) were separated on a 4–12% Bis-Tris NuPAGE gel and blotted onto a PVDF membrane (FluoroTrans; VWR). […] Horseradish peroxidase-conjugated secondary antibodies were from Cell Signaling. Proteins were visualized by enhanced chemiluminescence (Millipore) on ChemiDoc camera (Bio-Rad) and protein expression levels were quantified using the lmageJ software. Full anduncropped western blots are presented in Supplemental File.

[2] = system: phosphorylated c-Met in MKN45 cells; assay: Western blot of phosphorylated c-Met; format: cell-based, human; conditions: MKN45, concentration as low as 1 nM
Description: as §1

ASPC1 [3] = assay: Transwell migration assay; format: cell-based, human
Description: (§2) Migration assay was performed using an 8 μm-pore Boyden chamber (24-well, #353097, Corning, NY, USA). Treated with 1, 5, and 10 nM 1D228 for 48 h. A total of 5 × 10^4 cells were seeded in serum-free medium in the top chamber and allowed to migrate for 48 h toward the bottom chamber containing 10% fetal bovine serum medium. Cells were fixed and permeabilized with cold 70% ethanol and methanol and stained with 0.4% crystal violet. The average number of migrating cells was evaluated from at least four independent microscope fields.

MHCC97H [4] = assay: Transwell migration assay; format: cell-based, human; conditions: transwell, 1, 5 and 10 nM
Description: as §2

MHCC97H xenograft tumor = MHCC97H xenograft tumor model; format: in vivo, BALB/c nude mice; conditions: ig, calculated through tumor weight
Description: Male BALB/c nude mice (5-week old, 18–20 g) were purchased from Beijing Vital River Laboratory Animal Technology (Beijing Vital River LaboratoryAnimal Technology Co., Ltd., Beijing,China) and allowed to acclimate for 1 week, maintained at constant room temperature and fed a standard rodent chow and water. 1 × 10^7 cells/mL cancer cells grown in logarithmic phase were harvested and resuspended in FBS-free 1640 medium. Then, 100 μL of the cell suspension was subcutaneously injected into the right flank of each mouse. When the tumour volume was reached about 600–800 mm^3, it was removed, minced into small pieces of equal volume (2 × 2 × 2 mm^3), and transplanted subcutaneously into the nude mice. When the tumour volume was reached about 200–400 mm^3, the xenograft tumour-bearing nude mice were randomly allocated to five groups (vehicle-treated, 1D228-2mgd-treated, 1D228-4mgd-treated […] Tepotinib-treated groups, with 6 or 8 mice (The number of mice were determined according to previous experience on xenograft tumor models) per group. Each group was dosed by intragastric administration (ig) for 7–14 days. Tumour volume and body weights were recorded every day after drug treatment. At the end of the observation period, the animals were euthanized by cervical dislocation and the tumour bulks were peeled off conformed to the Guide for the Care and Use of Laboratory Animals as published by the US National Institutes of Health (NIH Publication No. 85-23, revised 1996) and approved by the Institutional Ethics Review Board of Binzhou Medical University. There was no blinding was done during the animal experiment. No animals were excluded from the analysis.

[5] = Liver microsomal stability assay; format: in vitro ADME; conditions: liver microsomes, pH 7.4
Description: The incubation system (including 0.1 M PH 7.4 phosphate buffer, NADPH generation system, UGT incubation system, 0.5 mg/mL liver microsomal protein and appropriate concentration of drug to be tested) was incubated in a water bath at 37 °C for […]. Each sample was incubated three times in parallel, and an equal volume of pre-chilled acetonitrile was added at preset reaction time points, such as 0, 5, 10, 15, 30 and 60 min. The reaction was terminated by the addition of acetonitrile. The remaining content of the prototype drug in the warm incubation solution was determined by HPLC, HPLC-MC and HPLC-MC/MC.

ASPC1 [6] = assay: CCK8 antiproliferative assay; format: cell-based; conditions: Homo sapiens; ASPC1, CCK8, 72 h; read-out: IC50, cell proliferation
Description: (§3) For cytotoxicity assay, the cells grown in the logarithmic phase were seeded into 96-well plates (7 × 10^3 cells/well) for 24 h, then exposed to different concentrations (10, 5, 1, 0.1, 0.01 and 0.001 μM) of the test compounds for 72 h. After attached cells were incubated with CCK8 (Sigma, USA) for another 1–4 h. Then the absorbance at 450 nm was measured using a multifunction microplate reader (Molecular Devices, Flex Station 3), and each experiment was performed at least in triplicate.

HS746T = assay: CCK8 antiproliferative assay; format: cell-based; conditions: Homo sapiens; HS746T, CCK8, 72 h; read-out: IC50, cell proliferation
Description: as §3

MHCC97H [7] = assay: CCK8 antiproliferative assay; format: cell-based; conditions: Homo sapiens, CCK-8, 72 h, read-out: IC50, cell proliferation
Description: as §3

MKN45 = assay: CCK8 antiproliferative assay; format: cell-based; conditions: Homo sapiens, MKN-45; MKN45, CCK-8, 72 h; read-out: IC50, cell proliferation
Description: as §3

TRKC = molecular target: T1, TRKC (Homo sapiens, UniProt Q16288); assay: HTRF kinase assay; format: biochemical
T1 construct: purchased Invitrogen (c-Met, TRKA, TRKB, TRKC)
Description: (§4) HTRF kinase assay to test the activity of compound 1D228 on c-Met and NTRK kinases: c-Met, TRKA, TRKB and TRKC as well as the Zˊ-Lyte kinase Kit were purchased from Invitrogen. The experiments were performed according to the instructions of the manufacturer. Concentrations consisting of 2 or 10 levels from 0.001 to 1 mM were used for 1D228. Plate was measured on multifunction microplate reader (Molecular Devices, Flex Station 3). Curve fitting and data presentations were performed using Graph Pad Prism version 5.0. Every experiment was repeated at least 3 times.

c-Met kinase = molecular target: T2, c-Met kinase (Homo sapiens, UniProt P08581); assay: HTRF kinase assay; format: biochemical
T2 construct: purchased Invitrogen
Description: as §4

TRKA = molecular target: T3, TRKA (Homo sapiens, UniProt P04629); assay: HTRF kinase assay; format: biochemical
T3 construct: purchased Invitrogen (c-Met, TRKA, TRKB, TRKC)
Description: as §4

TRKB = molecular target: T4, TRKB (Homo sapiens, UniProt Q16620); assay: HTRF kinase assay; format: biochemical
T4 construct: purchased Invitrogen
Description: as §4

T2 sequence (P08581 25-1390): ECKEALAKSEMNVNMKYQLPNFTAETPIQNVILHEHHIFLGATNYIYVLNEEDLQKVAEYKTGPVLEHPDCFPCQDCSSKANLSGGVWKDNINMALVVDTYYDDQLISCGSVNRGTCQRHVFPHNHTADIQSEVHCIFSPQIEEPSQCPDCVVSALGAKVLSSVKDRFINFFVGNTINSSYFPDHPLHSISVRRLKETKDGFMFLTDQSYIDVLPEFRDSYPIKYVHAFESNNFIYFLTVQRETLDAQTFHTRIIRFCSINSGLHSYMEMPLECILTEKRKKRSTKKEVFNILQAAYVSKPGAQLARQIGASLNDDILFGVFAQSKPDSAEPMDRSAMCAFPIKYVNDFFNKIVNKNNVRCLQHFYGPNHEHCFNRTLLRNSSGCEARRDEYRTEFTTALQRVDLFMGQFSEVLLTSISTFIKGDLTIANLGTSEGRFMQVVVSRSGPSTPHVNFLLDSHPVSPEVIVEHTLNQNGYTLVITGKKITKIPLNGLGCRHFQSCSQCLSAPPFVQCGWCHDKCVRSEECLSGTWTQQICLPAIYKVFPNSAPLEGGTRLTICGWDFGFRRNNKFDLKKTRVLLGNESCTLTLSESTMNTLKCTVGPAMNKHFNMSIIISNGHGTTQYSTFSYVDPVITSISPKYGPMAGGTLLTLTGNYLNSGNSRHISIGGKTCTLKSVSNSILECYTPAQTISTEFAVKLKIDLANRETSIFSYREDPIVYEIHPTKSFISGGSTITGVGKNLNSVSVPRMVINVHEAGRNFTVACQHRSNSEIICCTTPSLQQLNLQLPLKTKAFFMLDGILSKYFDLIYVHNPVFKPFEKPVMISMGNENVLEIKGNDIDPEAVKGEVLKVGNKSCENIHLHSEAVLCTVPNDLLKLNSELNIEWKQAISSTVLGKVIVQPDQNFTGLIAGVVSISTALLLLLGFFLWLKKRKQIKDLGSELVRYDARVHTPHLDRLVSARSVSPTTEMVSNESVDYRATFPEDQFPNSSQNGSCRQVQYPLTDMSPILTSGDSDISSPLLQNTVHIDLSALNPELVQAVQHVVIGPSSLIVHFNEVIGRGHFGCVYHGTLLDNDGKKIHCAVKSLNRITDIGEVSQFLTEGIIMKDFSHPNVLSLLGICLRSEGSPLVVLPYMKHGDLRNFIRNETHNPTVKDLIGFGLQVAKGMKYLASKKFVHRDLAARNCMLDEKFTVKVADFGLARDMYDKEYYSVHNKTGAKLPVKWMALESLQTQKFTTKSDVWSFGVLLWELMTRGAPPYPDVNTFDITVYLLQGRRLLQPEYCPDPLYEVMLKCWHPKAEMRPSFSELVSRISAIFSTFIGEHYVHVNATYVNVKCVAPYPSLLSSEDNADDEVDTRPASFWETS
T3 sequence (P04629 33-796): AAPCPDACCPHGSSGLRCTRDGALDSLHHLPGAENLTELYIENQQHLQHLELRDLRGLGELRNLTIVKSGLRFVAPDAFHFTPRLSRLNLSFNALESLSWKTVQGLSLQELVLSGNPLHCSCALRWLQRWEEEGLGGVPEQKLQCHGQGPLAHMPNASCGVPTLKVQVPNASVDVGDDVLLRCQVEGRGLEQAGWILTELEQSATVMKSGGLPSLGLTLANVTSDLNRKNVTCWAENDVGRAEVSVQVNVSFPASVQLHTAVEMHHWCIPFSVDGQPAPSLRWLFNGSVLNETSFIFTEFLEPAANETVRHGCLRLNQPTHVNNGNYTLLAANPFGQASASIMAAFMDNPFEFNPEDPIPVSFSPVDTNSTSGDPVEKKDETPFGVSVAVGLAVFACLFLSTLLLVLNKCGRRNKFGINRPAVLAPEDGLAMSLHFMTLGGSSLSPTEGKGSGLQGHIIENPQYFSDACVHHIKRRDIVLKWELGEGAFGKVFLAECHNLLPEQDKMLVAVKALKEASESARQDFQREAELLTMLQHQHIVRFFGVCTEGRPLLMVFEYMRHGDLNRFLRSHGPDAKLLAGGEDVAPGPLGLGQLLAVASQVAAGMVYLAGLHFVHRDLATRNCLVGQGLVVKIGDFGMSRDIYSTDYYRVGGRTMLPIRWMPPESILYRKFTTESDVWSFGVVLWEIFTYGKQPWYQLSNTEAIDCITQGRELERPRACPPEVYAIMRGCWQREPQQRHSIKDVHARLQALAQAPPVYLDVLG
T4 sequence (Q16620 32-822): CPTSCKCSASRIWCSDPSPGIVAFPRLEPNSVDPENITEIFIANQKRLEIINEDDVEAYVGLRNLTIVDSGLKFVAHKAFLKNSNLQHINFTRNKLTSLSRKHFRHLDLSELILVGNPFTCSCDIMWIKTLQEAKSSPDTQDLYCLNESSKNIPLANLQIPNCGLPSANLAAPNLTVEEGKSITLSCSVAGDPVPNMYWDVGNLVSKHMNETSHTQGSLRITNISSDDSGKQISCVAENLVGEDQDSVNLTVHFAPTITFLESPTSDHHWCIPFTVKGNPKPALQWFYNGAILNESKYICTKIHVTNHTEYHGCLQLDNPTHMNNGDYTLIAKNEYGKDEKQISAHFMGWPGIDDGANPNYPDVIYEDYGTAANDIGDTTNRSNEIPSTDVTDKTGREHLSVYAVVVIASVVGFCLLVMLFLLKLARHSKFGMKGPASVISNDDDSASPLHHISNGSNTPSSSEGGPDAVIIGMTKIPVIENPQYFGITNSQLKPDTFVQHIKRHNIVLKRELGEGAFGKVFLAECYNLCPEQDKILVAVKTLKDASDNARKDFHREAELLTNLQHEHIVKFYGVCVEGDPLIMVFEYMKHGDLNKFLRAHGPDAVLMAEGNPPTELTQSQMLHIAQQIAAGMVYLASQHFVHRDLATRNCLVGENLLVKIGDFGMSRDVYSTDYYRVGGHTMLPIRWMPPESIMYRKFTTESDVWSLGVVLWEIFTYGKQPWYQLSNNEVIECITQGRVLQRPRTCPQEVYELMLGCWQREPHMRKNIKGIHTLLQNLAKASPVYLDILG
T1 sequence (Q16288 32-839): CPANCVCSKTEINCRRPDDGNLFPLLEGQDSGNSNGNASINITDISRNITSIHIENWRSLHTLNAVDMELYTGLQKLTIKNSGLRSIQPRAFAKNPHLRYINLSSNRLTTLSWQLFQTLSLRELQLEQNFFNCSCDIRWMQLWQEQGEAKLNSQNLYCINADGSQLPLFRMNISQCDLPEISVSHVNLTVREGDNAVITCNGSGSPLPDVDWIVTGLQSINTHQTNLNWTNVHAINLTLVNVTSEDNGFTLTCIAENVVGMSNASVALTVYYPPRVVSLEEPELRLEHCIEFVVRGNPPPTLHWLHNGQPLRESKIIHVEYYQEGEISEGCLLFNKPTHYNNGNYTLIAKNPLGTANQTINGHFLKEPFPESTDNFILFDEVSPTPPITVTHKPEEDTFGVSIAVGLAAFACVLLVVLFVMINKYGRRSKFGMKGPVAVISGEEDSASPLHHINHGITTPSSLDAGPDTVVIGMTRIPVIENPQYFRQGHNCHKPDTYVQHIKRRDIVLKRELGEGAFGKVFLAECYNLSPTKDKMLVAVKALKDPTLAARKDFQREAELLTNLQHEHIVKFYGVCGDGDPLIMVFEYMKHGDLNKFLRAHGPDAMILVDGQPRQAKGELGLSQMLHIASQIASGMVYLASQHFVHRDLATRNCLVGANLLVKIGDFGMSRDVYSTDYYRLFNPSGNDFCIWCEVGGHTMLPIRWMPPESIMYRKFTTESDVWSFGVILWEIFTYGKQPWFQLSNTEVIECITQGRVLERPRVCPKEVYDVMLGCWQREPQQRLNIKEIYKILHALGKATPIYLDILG

Question: For `[2H][C@@](C)(c1cccc(-c2ncc(OCC3CCN(C)CC3)cn2)c1)n1nc(-c2cccc(C#N)c2)ccc1=O` [1D228], which “Phosphorylated c-Met level” value [1] is on record?
Answer: significant reduction

Question: And the “Phosphorylated c-Met level” value [2]?
Answer: significant reduction

Question: And the “Cells blocked from migrating” value (ASPC1 [3])?
Answer: 50–80%

Question: What about the “Cells blocked from migrating” value (MHCC97H [4]) of the same compound?
Answer: 50–80%

Question: What about the “Tumor growth inhibition (TGI)” value (MHCC97H xenograft tumor; 2 mg/kg) of the same compound?
Answer: 81.2%

Question: What about the “Tumor growth inhibition (TGI)” value (MHCC97H xenograft tumor; 4 mg/kg) of the same compound?
Answer: 93.4%

Question: What about the “Tumor growth inhibition (TGI)” value (MHCC97H xenograft tumor; 8 mg/kg) of the same compound?
Answer: 98.2%

Question: What about the half-life ([5]; cynomolgus monkey, Macaca fascicularis liver microsome) of the same compound?
Answer: 27.6 h

Question: What about the half-life ([5]; mouse, CD - 1 mice liver microsome) of the same compound?
Answer: 1.7 h

Question: What about the IC50 (ASPC1 [6]) of the same compound?
Answer: 1330 nM

Question: What about the IC50 (HS746T) of the same compound?
Answer: 890 nM

Question: What about the IC50 (MHCC97H [7]) of the same compound?
Answer: 4.3 nM

Question: What about the IC50 (MKN45) of the same compound?
Answer: 1 nM

Question: And the IC50 (TRKC)?
Answer: 25.5 nM

Question: And the IC50 (c-Met kinase)?
Answer: 0.98 nM

Question: And the IC50 (TRKA)?
Answer: 111 nM

Question: And the IC50 (TRKB)?
Answer: 23.7 nM
